The numbers were not newly measured in US20190142336A1, “SYSTEMS AND METHODS FOR DETERMINING RESPONSE TO ANESTHETIC AND SEDATIVE DRUGS USING MARKERS OF BRAIN FUNCTION” (THE GENERAL HOSPITAL CORPORATION, priority 2016, published 2019), which cites them from elsewhere.

The conditions of data set [1]: plethysmography and blood gas.
Data set [2] has as its system dopamine and norepinephrine reuptake transporters.

In the case of `COC(=O)C(c1ccccc1)C1CCCCN1` (stereo not drawn) [methylphenidate], the minute ventilation result in data set [1] is given as “increases minute ventilation”. For the same compound, the “emergence from general anesthesia” value in data set [2] (isoflurane general anesthesia) is on record as “actively induces emergence”. For the compound `O=C(CCCN1CC=C(n2c(=O)[nH]c3ccccc32)CC1)c1ccc(F)cc1` [droperidol], in data set [2] (given against methylphenidate-induced arousal), the “behavioral and respiratory effects induced by methylphenidate” value is “inhibited”.
